Consider one compound from the NIST ThermoML archive (doi:10.1016/j.tca.2017.05.009).

Numbers after ± are expanded uncertainties.

The conditions of the data set: Crystal; DTA.

Regarding `[Sn]` [tin], the Normal melting temperature amounted to 231.90 ± 2 °C.
